# Test results published in ChEMBL document CHEMBL5365521, “Discovery of the Potent and Selective Inhaled Janus Kinase 1 Inhibitor AZD4604 and Its Preclinical Characterization” (J Med Chem, 2023).
# Tests used:
# [1] = Toxicity in human naive Th2 cell assessed as reduction in cell viability at 1 to 10000 nM; format: cell-based; details: 10 µM, dose 1-10000 nM
# [2] = Toxicity in human CD4+ T cell assessed as reduction in cell viability measured after 5 days by eFluor780 staining based flow cytometry analysis; details: 120 h, dose 1-10000 nM, time 5 day
# Th17 = test: Inhibition of human memory-derived Th17 cell differentiation assessed as decrease in IL-17 production measured after 5 days by MSD assay; format: functional, cell-based; details: time 5.0 day
# Th2 cell [3] = test: Inhibition of human naive Th2 cell differentiation assessed as decrease in IL-13 production measured after 5 days by MSD assay; format: functional, cell-based; details: time 5.0 day
# [4] = Inhibition of JAK/STAT signaling pathway in human CD14-positive cell monocytes isolated from human PBMC assessed as inhibition of IL-4 stimulated STAT6 phosphorylation preincubated for 20 to 60 mins followed by IL-4 stimulation measured after 15 mins by flow cytometry analysis; format: cell-based
# Th2 cell [5] = test: Inhibition of human naive Th2 cell differentiation assessed as decrease in IL-5 production measured after 5 days by MSD assay; format: functional, cell-based; details: time 5.0 day
# CD4+ T cell = test: Antiinflammatory activity in human CD4+ T cell assessed as reduction in CD25 expression measured after 5 days by eFluor780 staining based flow cytometry analysis; format: functional; details: dose 1-10000 nM, time 5.0 day
# [6] = Toxicity in human memory-derived Th17 cells assessed as reduction in cell viability at 1 to 10000 nM; format: cell-based; details: th17, 10 µM, dose 1-10000 nM
# Th2 cell [7] = test: Inhibition of human naive Th2 cell differentiation assessed as decrease in IL-4 production measured after 5 days by MSD assay; format: functional, cell-based; details: dose 1-10000 nM, time 5.0 day
# [8] = Inhibition of JAK/STAT signaling pathway in human CD4+ T cell assessed as inhibition of IL-4 stimulated STAT6 phosphorylation preincubated for 20 to 60 mins followed by IL-4 stimulation measured after 15 mins by flow cytometry analysis; format: cell-based
# Th1 cell = test: Inhibition of human naive Th1 cell differentiation assessed as decrease in IFNg production measured after 5 days by MSD assay; format: functional, cell-based; details: dose 1-10000 nM, time 5.0 day
# [9] = Toxicity in human naive Th1 cell assessed as reduction in cell viability at 1 to 10000 nM; format: cell-based; details: 10 µM, dose 1-10000 nM
# [10] = Inhibition of JAK/STAT signaling pathway in human CD14-positive cell monocytes isolated from human PBMC assessed as inhibition of IL-13 stimulated STAT6 phosphorylation preincubated for 20 to 60 mins followed by IL-13 stimulation measured after 15 mins by flow cytometry analysis; format: cell-based
# [11] = Distribution coefficient between 1-Octanol and aqueous phosphate buffer, logD of the compound at pH 7.4 by shake-flask method; format: physicochemical; details: 1-octanol/aqueous phosphate buffer, read-out: logD
# [12] = Plasma protein binding in human assessed as free fraction; format: ADME, cell-free
# [13] = AUC(0 to 24 hrs) in rat at 0.020 micromol/kg, IT; format: ADME; design: dose 0.02 µmol/kg, route it; details: in vivo, 0.02 µmol/kg
# [14] = Inhibition of JAK/STAT signaling pathway in human U-937 cells assessed as inhibition of IL-13 stimulated STAT6 phosphorylation; format: cell-based
# [15] = molecular target: Tyrosine-protein kinase JAK1 (Homo sapiens, UniProt P23458); test: Inhibition of N-terminal GST-tagged human recombinant JAK1 (866 to 1154 residues) expressed in insect cells using FITC-C6-KKHTDDGYMPMSPGVA-NH peptide as substrate incubated for 10 mins measured after 90 mins in presence of ATP by caliper mobility shift assay
# Tyrosine-protein kinase JAK1, sequence (P23458 whole entry, the tested form may be a part): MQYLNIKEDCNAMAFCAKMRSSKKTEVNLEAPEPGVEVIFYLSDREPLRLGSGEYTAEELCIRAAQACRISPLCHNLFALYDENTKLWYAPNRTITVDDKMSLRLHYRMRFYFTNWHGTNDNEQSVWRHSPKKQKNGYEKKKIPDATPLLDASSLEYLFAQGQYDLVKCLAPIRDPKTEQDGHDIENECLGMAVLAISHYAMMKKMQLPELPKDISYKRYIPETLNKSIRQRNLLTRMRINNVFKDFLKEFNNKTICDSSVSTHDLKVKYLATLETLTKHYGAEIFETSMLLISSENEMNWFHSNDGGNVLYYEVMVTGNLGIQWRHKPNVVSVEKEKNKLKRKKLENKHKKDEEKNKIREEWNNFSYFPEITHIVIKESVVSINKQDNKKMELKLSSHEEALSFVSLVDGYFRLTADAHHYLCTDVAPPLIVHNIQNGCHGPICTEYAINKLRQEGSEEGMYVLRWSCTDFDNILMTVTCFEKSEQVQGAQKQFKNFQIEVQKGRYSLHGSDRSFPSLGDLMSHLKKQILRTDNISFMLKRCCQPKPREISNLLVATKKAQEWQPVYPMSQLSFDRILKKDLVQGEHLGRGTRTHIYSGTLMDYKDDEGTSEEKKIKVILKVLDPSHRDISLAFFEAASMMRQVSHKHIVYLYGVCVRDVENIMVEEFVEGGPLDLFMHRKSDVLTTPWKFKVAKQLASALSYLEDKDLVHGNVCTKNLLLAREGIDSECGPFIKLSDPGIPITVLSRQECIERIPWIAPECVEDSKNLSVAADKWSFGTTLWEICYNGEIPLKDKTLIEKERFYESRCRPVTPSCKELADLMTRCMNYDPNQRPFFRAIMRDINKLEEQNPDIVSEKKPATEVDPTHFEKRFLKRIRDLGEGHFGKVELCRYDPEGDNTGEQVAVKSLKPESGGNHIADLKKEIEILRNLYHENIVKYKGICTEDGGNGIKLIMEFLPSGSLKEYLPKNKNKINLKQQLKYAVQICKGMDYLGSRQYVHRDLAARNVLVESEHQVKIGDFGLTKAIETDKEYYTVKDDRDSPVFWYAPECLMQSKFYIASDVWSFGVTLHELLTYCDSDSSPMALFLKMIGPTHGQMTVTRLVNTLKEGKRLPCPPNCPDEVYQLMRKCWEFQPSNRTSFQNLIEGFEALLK
# [16] = Drug uptake in lung of rat at 0.020 micromol/kg, IT; format: ADME, tissue-based; details: in vivo, other, dose 0.02 µmol/kg
# [17] = Thermodynamic solubility of the compound in phosphate buffer at pH 7.4 measured after 24 hrs by HPLC-MS analysis; format: physicochemical; details: read-out: Therm_solubility
# [18] = Inhibition of JAK/STAT signaling pathway in human U-937 cells assessed as inhibition of IL-4 stimulated STAT6 phosphorylation; format: cell-based
# [19] = Volume of distribution at steady state in Han Wistar rat at 0.5 mg/kg, iv; format: ADME, organism-based; details: in vivo, read-out: Vdss
# [20] = Efflux ratio of apparent permeability across apical to basolateral side in human Caco-2 cells at pH 7.4; format: ADME, cell-based; details: Caco-2, pH 7.4
# [21] = Apparent permeability of compound across apical to basolateral side in human Caco-2 cells at pH 7.4; format: ADME, cell-based; details: Caco-2, pH 7.4
# [22] = Solubility in phosphate buffer at pH 7.4; format: physicochemical
# [23] = Thermodynamic solubility of the compound in phosphate buffer at pH 6.5 measured after 24 hrs by HPLC-MS analysis; format: physicochemical; details: read-out: Therm_solubility
logD [11],fraction unbound [12],AUC(0-t) [13] [µM·h],IC50 [14] [nM],IC50 [15] [nM],Drug uptake [16],IC50 [18] [nM],Vd [19] [L/kg],efflux ratio [20],Papp A→B [21] [×10⁻⁶ cm/s],solubility [22] [µM],SMILES,further results
–,–,–,–,–,–,–,–,–,–,–,C[C@@H]1CCN(C(=O)CC#N)C[C@@H]1N(C)c1ncnc2[nH]ccc12 [TOFACITINIB],Activity [1]: Non-Toxic; Activity [2]: Dose-Dependent Effect; inhibition (Th17): Dose-Dependent Effect; inhibition (Th2 cell [3]): Dose-Dependent Effect; IC50 [4]: 65 nM; inhibition (Th2 cell [5]): Dose-Dependent Effect; Activity (CD4+ T cell): Dose-Dependent Effect; Activity [6]: Non-Toxic; inhibition (Th2 cell [7]): Dose-Dependent Effect; IC50 [8]: 53 nM; inhibition (Th1 cell): Dose-Dependent Effect; Activity [9]: Non-Toxic; IC50 [10]: 57 nM
2.5,0.06,1.5,32,≤ 4,Active,22,9.2,4.9,4.5,15,Cc1cnc(Nc2cccc(S(C)(=O)=O)c2F)nc1-c1c[nH]c2c(NC(=O)[C@@H](C)N3CCN(C)CC3)cccc12,solubility thermodynamic at 24 h [17]: 15 µM
3.3,0.05,–,43,≤ 3,–,27,–,–,–,9,CC[C@H](C(=O)Nc1cccc2c(-c3nc(Nc4cccc(S(C)(=O)=O)c4F)ncc3F)c[nH]c12)N1CCN(C)CC1,–
2.8,0.05,1.6,22,–,Active,15,9,3.6,2.7,11,CC[C@H](C(=O)Nc1cccc2c(-c3nc(Nc4cccc(S(C)(=O)=O)c4F)ncc3C)c[nH]c12)N1CCN(C)CC1,solubility thermodynamic at 24 h [23]: 104 µM
